Literature values as cited in patent US9795686B2, “Biomaterials comprising hyaluronic acid binding peptides and bifunctional biopolymer molecules for hyaluronic acid retention and tissue engineering applications” (THE JOHNS HOPKINS UNIVERSITY, priority 2012, dated 2017).

Settings: previously observed; read-out: Kd, affinity of HABPep for HA

Sequence: GAHWQFNALTVR [HABPep]
- Kd: 1.65 µM
